Consider 3 compounds from patent publication US4587256A, “Novel thiazolidine derivatives” (Hoffmann-La Roche Inc., priority 1983, dated 1986).

Structures are written as SMILES.

The subject of experiment [1] is streptozotocin-treated, diabetic rats. The experiment is described as follows: sorbitol concentration in eye lens and sciatic nerve of streptozotocin-treated, diabetic rats. The format is in vivo. To be noted: 3 times 20 mg/kg p.o. (4, 8 and 24 hours after streptozotocin), 3 hours after last dosage. As for the experimental part:
(§1) Furthermore, the compound of formula I in which R^1 is fluorine and R^2 is hydrogen was investigated for its activity on galactosaemic rats (30% galactose diet). More particularly, the dulcitol concentration in the eye lens was determined after 5 applications of 5 and of 20 mg/kg body weight per os over 2 days. Similarly, 20 mg/kg were administered intraperitoneally in an additional experiment. […] The same compound was also administered to streptozotocin-treated, diabetic rats (3 times 20 mg/kg p.o., 4, 8 and 24 hours after streptozotocin administration). Three (3) hours after the administration of the last dosage, the sorbitol concentration was determined in the eye lens and in the sciatic nerve.

For experiment [2], the target named is T1, aldose reductase from calves lenses (Bos taurus, UniProt P16116).
T1 construct: aldose reductase from calves lenses; from tissue; host or cells: calf lens
The experiment is described as follows: inhibiting activity of aldose reductase from calves lenses. The format is biochemical. To be noted: read-out: IC50 values (concentrations which bring about 50% enzyme inhibition).

The test system of a further experiment is galactosaemic rats. Briefly: dulcitol concentration in the eye lens of galactosaemic rats (30% galactose diet). The format is in vivo. The settings on record: compared to untreated galactosaemic animals. As for the experimental part:
as §1

As for `O=C1NC(=O)C2(CCOc3ccc(F)cc32)S1` (racemic) [(±)-6-fluoro-2,3-dihydrospiro[4H-1-benzopyran-4,5'-thiazolidine]-2',4'-dione], the “sorbitol concentration in the eye lens” value in experiment [1] is reported as “clear decrease”. Also, the “sorbitol concentration in the sciatic nerve” value in experiment [1] is listed as “clear decrease”. For the same compound, in experiment [2], the IC50 was determined as 0.1 µM. For the same compound, the “dulcitol concentration in the eye lens” value in the experiment with galactosaemic rats (20 mg/kg administered intraperitoneally), in the experiment with galactosaemic rats (5 applications of 5 mg/kg body weight per os over 2 days) and in the experiment with galactosaemic rats (5 applications of 20 mg/kg body weight per os over 2 days) was “significant decrease” in each case.
On to `CC(=O)Nc1cc(F)cc2c1OCCC21SC(=O)NC1=O` (racemic) [(±)-6-fluoro-8-acetamido-2,3-dihydrospiro[4H-1-benzopyran-4,5'-thiazolidine]-2',4'-dione], for which the IC50 in experiment [2] came out at 0.008 µM.
On to `O=C1NC(=O)C2(CCOc3c([N+](=O)[O-])cc(F)cc32)S1` (racemic) [(±)-6-fluoro-8-nitro-2,3-dihydrospiro[4H-1-benzopyran-4,5'-thiazolidine]-2',4'-dione], for which the IC50 in experiment [2] is 0.089 µM.
